{
  "source": "paper PMC6979384",
  "about": "“Characterization of the plant homeodomain (PHD) reader family for their histone tail interactions” (Epigenetics & Chromatin, 2020)",
  "test_in_all_cases": "Histone peptide microarray",
  "type_in_all_cases": "binding, human",
  "key": {"DPF2 (PPC2W2)": {"tested_on": "DPF2 (PPC2W2)", "conditions": "GST-tagged DPF2 (PPC2W2 = Dual PHD + C2W2-type Zn-finger); sheet Array Heatmap; each array performed twice, total n = 4", "summary_of_the_method": "(§1)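 Histone peptide library (293 synthetic peptides, single/combinatorial PTMs) arrayed and probed with 0.5 μM purified GST-PHD domain; optimized protocol; quadruplicate mean and SD reported.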"}, "PHF21A": {"tested_on": "PHF21A", "conditions": "GST-tagged PHF21A; sheet Array Heatmap; each array performed twice, total n = 4", "summary_of_the_method": "as §1"}, "TAF3": {"tested_on": "TAF3", "conditions": "GST-tagged TAF3; sheet Array Heatmap; each array performed twice, total n = 4", "summary_of_the_method": "as §1"}, "BAZ2B": {"tested_on": "BAZ2B", "conditions": "GST-tagged BAZ2B; sheet Array Heatmap; each array performed twice, total n = 4", "summary_of_the_method": "as §1"}, "ING4": {"tested_on": "ING4", "conditions": "GST-tagged ING4; sheet Array Heatmap; each array performed twice, total n = 4", "summary_of_the_method": "as §1"}, "KDM4C (TTP)": {"tested_on": "KDM4C (TTP)", "conditions": "GST-tagged KDM4C (TTP = Tandem Tudor domain + PHD); sheet Array Heatmap; each array performed twice, total n = 4", "summary_of_the_method": "as §1"}, "BPTF (PB)": {"tested_on": "BPTF (PB)", "conditions": "GST-tagged BPTF (PB = PHD + Bromodomain); sheet Array Heatmap; each array performed twice, total n = 4", "summary_of_the_method": "as §1"}, "CHD5 (PPCC)": {"tested_on": "CHD5 (PPCC)", "conditions": "GST-tagged CHD5 (PPCC = Dual PHD + Dual Chromodomain); sheet Array Heatmap; each array performed twice, total n = 4", "summary_of_the_method": "as §1"}, "ING1": {"tested_on": "ING1", "conditions": "GST-tagged ING1; sheet Array Heatmap; each array performed twice, total n = 4", "summary_of_the_method": "as §1"}, "DIDO1": {"tested_on": "DIDO1", "conditions": "GST-tagged DIDO1; sheet Array Heatmap; each array performed twice, total n = 4", "summary_of_the_method": "as §1"}, "SP140L": {"tested_on": "SP140L", "conditions": "GST-tagged SP140L; sheet Array Heatmap; each array performed twice, total n = 4", "summary_of_the_method": "as §1"}, "ING5": {"tested_on": "ING5", "conditions": "GST-tagged ING5; sheet Array Heatmap; each array performed twice, total n = 4", "summary_of_the_method": "as §1"}, "ING2": {"tested_on": "ING2", "conditions": "GST-tagged ING2; sheet Array Heatmap; each array performed twice, total n = 4", "summary_of_the_method": "as §1"}, "TRIM66 (PB)": {"tested_on": "TRIM66 (PB)", "conditions": "GST-tagged TRIM66 (PB = PHD + Bromodomain); sheet Array Heatmap; each array performed twice, total n = 4", "summary_of_the_method": "as §1"}, "PHF13": {"tested_on": "PHF13", "conditions": "GST-tagged PHF13; sheet Array Heatmap; each array performed twice, total n = 4", "summary_of_the_method": "as §1"}, "AIRE (PP)": {"tested_on": "AIRE (PP)", "conditions": "GST-tagged AIRE (PP); sheet Array Heatmap; each array performed twice, total n = 4", "summary_of_the_method": "as §1"}, "PHF2": {"tested_on": "PHF2", "conditions": "GST-tagged PHF2; sheet Array Heatmap; each array performed twice, total n = 4", "summary_of_the_method": "as §1"}, "KDM5A (3)": {"tested_on": "KDM5A (3)", "conditions": "GST-tagged KDM5A (3); sheet Array Heatmap; each array performed twice, total n = 4", "summary_of_the_method": "as §1"}, "KDM7A": {"tested_on": "KDM7A", "conditions": "GST-tagged KDM7A; sheet Array Heatmap; each array performed twice, total n = 4", "summary_of_the_method": "as §1"}, "CHD4 (PPCC)": {"tested_on": "CHD4 (PPCC)", "conditions": "GST-tagged CHD4 (PPCC = Dual PHD + Dual Chromodomain); sheet Array Heatmap; each array performed twice, total n = 4", "summary_of_the_method": "as §1"}, "MORC3 (CW)": {"tested_on": "MORC3 (CW)", "conditions": "GST-tagged MORC3 (CW = CW-type Zn-finger); sheet Array Heatmap; each array performed twice, total n = 4", "summary_of_the_method": "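Steps: express and purify GST-tagged PHD reader; incubate 0.5 μM protein on a peptide microarray (293 histone peptides, single or combined PTMs) following an optimized protocol; average signal across 4 replicates.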"}, "PHRF1 (RP)": {"tested_on": "PHRF1 (RP)", "conditions": "GST-tagged PHRF1 (RP); sheet Array Heatmap; each array performed twice, total n = 4", "summary_of_the_method": "as §1"}, "PHF23": {"tested_on": "PHF23", "conditions": "GST-tagged PHF23; sheet Array Heatmap; each array performed twice, total n = 4", "summary_of_the_method": "as §1"}, "KDM5B (1)": {"tested_on": "KDM5B (1)", "conditions": "GST-tagged KDM5B (1); sheet Array Heatmap; each array performed twice, total n = 4", "summary_of_the_method": "as §1"}, "CHD5 (PCC)": {"tested_on": "CHD5 (PCC)", "conditions": "GST-tagged CHD5 (PCC = PHD + Dual Chromodomain); sheet Array Heatmap; each array performed twice, total n = 4", "summary_of_the_method": "as §1"}, "KDM5A (1)": {"tested_on": "KDM5A (1)", "conditions": "GST-tagged KDM5A (1); sheet Array Heatmap; each array performed twice, total n = 4", "summary_of_the_method": "as §1"}, "RAG2": {"tested_on": "RAG2", "conditions": "GST-tagged RAG2; sheet Array Heatmap; each array performed twice, total n = 4", "summary_of_the_method": "as §1"}, "KDM5B (3)": {"tested_on": "KDM5B (3)", "conditions": "GST-tagged KDM5B (3); sheet Array Heatmap; each array performed twice, total n = 4", "summary_of_the_method": "as §1"}, "ING3": {"tested_on": "ING3", "conditions": "GST-tagged ING3; sheet Array Heatmap; each array performed twice, total n = 4", "summary_of_the_method": "as §1"}, "MLL5": {"tested_on": "MLL5", "conditions": "GST-tagged MLL5; sheet Array Heatmap; each array performed twice, total n = 4", "summary_of_the_method": "as §1"}, "PHF8": {"tested_on": "PHF8", "conditions": "GST-tagged PHF8; sheet Array Heatmap; each array performed twice, total n = 4", "summary_of_the_method": "as §1"}},
  "data": [
    {"substance": "H3K4me3 + K14ac + K18ac: H3 1-20", "values": [
      {"measurement": "Array Heatmap signal (histone peptide microarray)", "setting": "DPF2 (PPC2W2)", "result": 0.7705},
      {"measurement": "Array Heatmap signal (histone peptide microarray)", "setting": "PHF21A", "result": 0.4924},
      {"measurement": "Array Heatmap signal (histone peptide microarray)", "setting": "TAF3", "result": 1},
      {"measurement": "Array Heatmap signal (histone peptide microarray)", "setting": "BAZ2B", "result": 0.6645},
      {"measurement": "Array Heatmap signal (histone peptide microarray)", "setting": "ING4", "result": 0.8448},
      {"measurement": "Array Heatmap signal (histone peptide microarray)", "setting": "KDM4C (TTP)", "result": 0.868},
      {"measurement": "Array Heatmap signal (histone peptide microarray)", "setting": "BPTF (PB)", "result": 1},
      {"measurement": "Array Heatmap signal (histone peptide microarray)", "setting": "CHD5 (PPCC)", "result": 0.6153},
      {"measurement": "Array Heatmap signal (histone peptide microarray)", "setting": "ING1", "result": 0.9274},
      {"measurement": "Array Heatmap signal (histone peptide microarray)", "setting": "DIDO1", "result": 0.9566},
      {"measurement": "Array Heatmap signal (histone peptide microarray)", "setting": "SP140L", "result": 0.3709},
      {"measurement": "Array Heatmap signal (histone peptide microarray)", "setting": "ING5", "result": 0.6681},
      {"measurement": "Array Heatmap signal (histone peptide microarray)", "setting": "ING2", "result": 0.908},
      {"measurement": "Array Heatmap signal (histone peptide microarray)", "setting": "TRIM66 (PB)", "result": 0.7091},
      {"measurement": "Array Heatmap signal (histone peptide microarray)", "setting": "PHF13", "result": 0.9146},
      {"measurement": "Array Heatmap signal (histone peptide microarray)", "setting": "AIRE (PP)", "result": 0.5611},
      {"measurement": "Array Heatmap signal (histone peptide microarray)", "setting": "PHF2", "result": 0.829},
      {"measurement": "Array Heatmap signal (histone peptide microarray)", "setting": "KDM5A (3)", "result": 0.9424},
      {"measurement": "Array Heatmap signal (histone peptide microarray)", "setting": "KDM7A", "result": 0.7919},
      {"measurement": "Array Heatmap signal (histone peptide microarray)", "setting": "CHD4 (PPCC)", "result": 0.5986},
      {"measurement": "Array Heatmap signal (histone peptide microarray)", "setting": "MORC3 (CW)", "result": 0.9877},
      {"measurement": "Array Heatmap signal (histone peptide microarray)", "setting": "PHRF1 (RP)", "result": 0.6285},
      {"measurement": "Array Heatmap signal (histone peptide microarray)", "setting": "PHF23", "result": 0.9183},
      {"measurement": "Array Heatmap signal (histone peptide microarray)", "setting": "KDM5B (1)", "result": 0.8317},
      {"measurement": "Array Heatmap signal (histone peptide microarray)", "setting": "CHD5 (PCC)", "result": 0.8498},
      {"measurement": "Array Heatmap signal (histone peptide microarray)", "setting": "KDM5A (1)", "result": 0.5146},
      {"measurement": "Array Heatmap signal (histone peptide microarray)", "setting": "RAG2", "result": 1},
      {"measurement": "Array Heatmap signal (histone peptide microarray)", "setting": "KDM5B (3)", "result": 0.9729},
      {"measurement": "Array Heatmap signal (histone peptide microarray)", "setting": "ING3", "result": 1},
      {"measurement": "Array Heatmap signal (histone peptide microarray)", "setting": "MLL5", "result": 0.9197},
      {"measurement": "Array Heatmap signal (histone peptide microarray)", "setting": "PHF8", "result": 0.9943}
    ]}
  ]
}
